“And” between values parts separate entries of the source, which are not always exact repeats. Identical values can stand only once. Like-named read-outs stand apart in the source and are kept apart here.
Assays:
mGluR1 [1] = biological target: T1, mGluR1 (Homo sapiens, UniProt Q13255); assay: aequorin calcium assay, negative allosteric modulation of mGluR1; assay type: cell-based; settings: thiazole derivatives of benzamide, in vitro activity; read-out: binding at mGluR1
T1 construct: expression induced with doxycycline

mGluR5 = biological target: T2, mGluR5 (Homo sapiens, UniProt P41594); assay: aequorin calcium assay, negative allosteric modulation of mGluR5; assay type: cell-based
T2 construct: expression induced with doxycycline
Description: (§1) The ability of test compound to ameliorate the efflux of calcium cations (Ca^++) in the presence of agonist (glutamate or quisqualate) is measured by detection of light emitted by the luminescent protein aequorin triggered by binding of Ca^++. Aequorin is a photoprotein isolated from luminescent jellyfish (like various Aequorea species e.g. Aequorea victoria). Aequorin is composed of two distinct units, the apoprotein apoaequorin, with an approximate molecular weight of 22 kDa, and the prosthetic group, coelenterazine, responsible for emission of light. In the presence of molecular oxygen the two components of aequorin assemble spontaneously, forming the functional protein. Four EF-hand type regions have been identified in the structure of Aequorin and at least 3 of them function as binding sites for Ca+2 ions: Ca+2 binding to these EF hands triggers a conformational change of the protein, that leads it to oxidize its prosthetic group, coelenterazine, into excited coelenteramide and CO2. As the excited coelenteramide relaxes to the ground state, blue light (wavelength=469 nm) is emitted and can be measured by a luminometer. Negative allosteric modulator activity of test compound is expressed as a percentage of the stimulation of reference agonist (glutamate) activity at its EC80 concentration. Assay of Compounds was performed at Euroscreen SA, Gosselies, Belgium.
(§2) Cells stably transfected with mGlu1 or mGlu5 were grown 18 hours prior to the test in culture medium containing 600 ng/ml doxycycline, then were detached by gentle flushing with PBS-EDTA, recovered by centrifugation and resuspended in “assay buffer” (HBSS, 2.1 mM CaCl2, 3 μg/ml GPT (Glutamate-Pyruvate transaminase), 4 mM MEM Sodium Pyruvate, 0.1% BSA, protease free). Cells were incubated at room temperature for at least 4 h with coelenterazine-h. Dose response curves were performed using mGluR1 cells with the orthosteric agonist glutamate and negative allosteric modulator JNJ16259685. Dose response curves were performed using mGluR5 cells with the orthosteric agonist glutamate and negative allosteric modulator MPEP. For agonist testing, 30 μl of cell suspension were mixed with 30 μl of test compound or reference agonist in a 384-well plate. The resulting emission of light was recorded using the Hamamatsu Functional Drug Screening System 6000 (FDSS 6000). For negative allosteric modulator testing, 60 μl of the resulting cell suspension containing the test compound was mixed with 30 μl of the reference agonist at EC80 following an incubation of 3 min after the first injection. The resulting emission of light was recorded using FDSS 6000. […] Plates also contained the reference agonist at a concentration equivalent to the EC80 obtained during the test validation. Negative allosteric modulator activity of test compound was expressed as a percentage of the stimulation of reference agonist activity at its EC80 concentration.

[2] = test system: hyperalgesia in partial sciatic nerve ligation rat; assay: partial sciatic nerve ligation (PSN) model of neuropathic pain, paw withdrawal method; assay type: in vivo; set-up: AUC (0-5): unit not given beside the values; settings: for % MPE (0-100) 1 hr / Paw withdrawal thresholds (g; raw data) 1 hr / Raw MPE (%) 1 hr / % MPE (0-100) 3 hrs / Paw withdrawal thresholds (g; raw data) 3 hrs / Raw MPE (%) 3 hrs / % MPE (0-100) 5 hrs / Paw withdrawal thresholds (g; raw data) 5 hrs / Raw MPE (%) 5 hrs / % MPE (0-100) 24 hrs / Paw withdrawal thresholds (g; raw data) 24 hrs / Raw MPE (%) 24 hrs / AUC (0-5): PSN Sx rat
Description: Briefly, under gas anesthesia, the skin and muscles of the thigh were reflected to expose the sciatic nerve. About one-third to one-half of the cross-sectional area of the nerve was tightly ligated using a 7-0 nylon suture. The incision was closed in layers (suture for muscle, surgical adhesive for skin). […] Treated rats were assayed at 1, 3, 5, and 24 hr using the paw withdrawal method (L. Randall and J. Selitto, 1957, Arch. Int. Pharmacodynam., 111:409-19). […] The Partial sciatic nerve ligation assay was performed at Eurofins/Product Safety Laboratories (Dayton, N.J.).
Animals were housed in cages which conform to the size recommendations in the most recent NIH Guide for the Care and Use of Laboratory Animals. […] The animals were fed Purina Rodent Chow #5012. The animals were acclimated to the facility for 7 days prior to the study. A pre-operative baseline paw withdrawal measure was collected for all rats. […] After recovery, a pre-dosing baseline paw withdrawal threshold was collected for all rats. […] Rats were lightly anesthetized and treated with test article or vehicle. Paw withdrawal thresholds were determined at one, three, five, and 24 hours post dosing. […] Briefly, under gas anesthesia, the skin and muscles of the thigh were reflected to expose the sciatic nerve. About one third to one half of the cross-sectional area of the nerve was tightly ligated using a 7-0 nylon suture. The incision was closed in layers (suture for muscle, surgical adhesive for skin). Test article or vehicle was administered by transcutaneous injection (C. Mestre et al., 1994, J. Pharm. Tox. Meth., 32:197-200). Briefly, the rat was lightly anesthetized and placed to flex the lower lumbar vertebrae. After palpating the vertebral processes, a 26 gauge needle was inserted through a vertebral interspace. The presence of a tail flick was considered validation of the needle placement; the solution was then injected. Paw withdrawal thresholds were assessed using a paw pressure device (L. O. Randall & J. J. Selitto, 1957, Arch. Int. Pharmacodyn., 111:409-19). The behavioral endpoint was defined as paw withdrawal. Data was analyzed by two-way analysis of variance (repeated measures) with Bonferroni tests at individual time points. Paw withdrawal threshold raw values were used for the analysis, and each route of administration was analyzed separately. Vehicle-treated groups were used as the statistical comparison groups.

mGluR1 [3] = biological target: T1, mGluR1; assay: aequorin calcium assay, negative allosteric modulation of mGluR1; assay type: cell-based; settings: aequorin assay, agonist at EC80; 10000 = no activity observed at 10,000 nM
Description: as §1, §2

[4] = thiazole derivatives of benzamide, in vitro activity, read-out: binding at mGluR5
[5] = 10 μg intrathecal, group Average (N 6)
[6] = 10 μg intrathecal, individual rat, listed as SND 121
[7] = 49 μg intrathecal, group Average (N 6)
[8] = 49 μg intrathecal, individual rat, listed as SND 121

T2 sequence (P41594 21-1212): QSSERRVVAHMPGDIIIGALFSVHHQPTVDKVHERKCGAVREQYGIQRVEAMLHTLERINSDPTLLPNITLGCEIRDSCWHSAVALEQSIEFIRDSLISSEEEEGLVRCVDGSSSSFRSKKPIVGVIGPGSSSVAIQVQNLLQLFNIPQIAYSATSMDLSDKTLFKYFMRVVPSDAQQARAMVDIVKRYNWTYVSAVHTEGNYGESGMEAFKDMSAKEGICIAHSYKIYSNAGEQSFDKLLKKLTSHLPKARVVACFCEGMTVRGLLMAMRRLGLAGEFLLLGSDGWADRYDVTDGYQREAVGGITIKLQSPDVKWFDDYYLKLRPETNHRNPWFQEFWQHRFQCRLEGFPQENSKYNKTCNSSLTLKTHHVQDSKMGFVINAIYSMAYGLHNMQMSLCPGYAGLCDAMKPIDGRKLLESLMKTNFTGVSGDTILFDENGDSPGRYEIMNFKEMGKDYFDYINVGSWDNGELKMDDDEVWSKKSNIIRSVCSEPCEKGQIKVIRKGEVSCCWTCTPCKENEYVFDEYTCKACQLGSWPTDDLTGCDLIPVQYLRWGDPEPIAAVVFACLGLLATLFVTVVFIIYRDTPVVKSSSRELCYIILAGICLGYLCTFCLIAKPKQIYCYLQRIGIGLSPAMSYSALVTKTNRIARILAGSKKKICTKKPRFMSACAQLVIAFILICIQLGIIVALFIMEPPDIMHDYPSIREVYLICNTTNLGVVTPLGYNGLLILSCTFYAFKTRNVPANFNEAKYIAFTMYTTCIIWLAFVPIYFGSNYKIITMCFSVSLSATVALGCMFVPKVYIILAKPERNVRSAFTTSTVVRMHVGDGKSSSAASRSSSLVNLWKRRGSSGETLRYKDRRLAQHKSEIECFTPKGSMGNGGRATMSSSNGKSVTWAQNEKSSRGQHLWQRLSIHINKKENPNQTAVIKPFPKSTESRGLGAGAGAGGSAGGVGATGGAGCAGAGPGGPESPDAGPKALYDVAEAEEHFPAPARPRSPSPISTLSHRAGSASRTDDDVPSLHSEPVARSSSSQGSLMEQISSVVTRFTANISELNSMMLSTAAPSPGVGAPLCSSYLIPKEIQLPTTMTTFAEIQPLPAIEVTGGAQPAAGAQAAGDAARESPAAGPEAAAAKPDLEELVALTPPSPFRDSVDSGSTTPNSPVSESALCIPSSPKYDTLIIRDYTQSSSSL
T1 sequence (Q13255 19-1194): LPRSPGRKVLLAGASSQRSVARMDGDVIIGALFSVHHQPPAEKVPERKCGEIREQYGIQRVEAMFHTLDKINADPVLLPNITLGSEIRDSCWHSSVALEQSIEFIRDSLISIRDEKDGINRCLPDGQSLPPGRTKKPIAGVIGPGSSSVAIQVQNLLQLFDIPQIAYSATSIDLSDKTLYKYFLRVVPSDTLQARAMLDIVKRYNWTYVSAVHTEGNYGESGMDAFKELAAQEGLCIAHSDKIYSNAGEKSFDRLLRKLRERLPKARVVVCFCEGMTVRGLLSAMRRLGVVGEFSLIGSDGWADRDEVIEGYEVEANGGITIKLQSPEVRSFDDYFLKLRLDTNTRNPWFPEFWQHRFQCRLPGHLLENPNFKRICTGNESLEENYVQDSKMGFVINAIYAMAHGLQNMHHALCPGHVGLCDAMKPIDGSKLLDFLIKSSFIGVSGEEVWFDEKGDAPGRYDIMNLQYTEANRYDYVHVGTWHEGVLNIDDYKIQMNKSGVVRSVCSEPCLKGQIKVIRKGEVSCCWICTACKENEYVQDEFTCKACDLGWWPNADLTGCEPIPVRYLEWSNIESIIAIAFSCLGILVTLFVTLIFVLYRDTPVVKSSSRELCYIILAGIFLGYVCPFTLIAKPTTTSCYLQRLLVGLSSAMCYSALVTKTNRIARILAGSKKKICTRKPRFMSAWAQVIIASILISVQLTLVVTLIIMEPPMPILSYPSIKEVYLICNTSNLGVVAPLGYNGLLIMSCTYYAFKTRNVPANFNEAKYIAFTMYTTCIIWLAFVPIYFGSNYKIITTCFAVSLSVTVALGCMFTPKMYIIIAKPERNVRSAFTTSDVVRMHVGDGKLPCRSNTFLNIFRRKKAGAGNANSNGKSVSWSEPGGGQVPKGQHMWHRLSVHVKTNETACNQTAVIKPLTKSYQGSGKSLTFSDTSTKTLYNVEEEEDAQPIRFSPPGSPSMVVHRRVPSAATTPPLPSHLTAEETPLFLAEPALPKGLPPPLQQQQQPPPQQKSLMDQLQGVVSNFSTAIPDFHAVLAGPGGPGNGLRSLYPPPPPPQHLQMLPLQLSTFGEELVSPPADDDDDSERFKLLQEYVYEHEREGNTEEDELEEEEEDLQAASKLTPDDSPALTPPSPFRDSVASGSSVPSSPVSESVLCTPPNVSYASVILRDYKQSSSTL

CC(=O)Oc1ccc(Cl)cc1C(=O)Nc1nc([N+](=O)[O-])cs1 showed an EC50 (mGluR1 [1]) of 6.32 µM and an EC50 (mGluR5; [4]) of 2760 nM.

For O=C(Nc1nc([N+](=O)[O-])cs1)c1cc(Cl)ccc1O, the EC50 (mGluR1 [1]) was 1.76 µM and the EC50 (mGluR5; [4]) was 1250 nM.

For O=C(Nc1ccc([N+](=O)[O-])cc1Cl)c1cc(Cl)ccc1O [Compound 1, 5-Chloro-N-(2-chloro-4-nitrophenyl)-2-hydroxybenzamide], the “% MPE (0-100) 1 hr” value [2, 5] was 29.7%, the “Paw withdrawal thresholds (g; raw data) 1 hr” value [2, 5] was 125.8 g and the “Raw MPE (%) 1 hr” value [2, 5] was 31.3%. For the same molecule, the “% MPE (0-100) 1 hr” value [2, 6] was 0.0% (3×) and 6.7% and 100.0% and 71.5%, the “Paw withdrawal thresholds (g; raw data) 1 hr” value [2, 6] was 90 g (2×) and 60 g and 105 g and 250 g and 160 g and the “Raw MPE (%) 1 hr” value [2, 6] was −10.9% (2×) and 6.7% and 177.6% and 71.5%. For the same molecule, the “% MPE (0-100) 3 hrs” value [2, 5] was 39.9%, the “Paw withdrawal thresholds (g; raw data) 3 hrs” value [2, 5] was 130.0 g and the “Raw MPE (%) 3 hrs” value [2, 5] was 41.8%. The “% MPE (0-100) 3 hrs” value [2, 6] was 41.8% and 27.5% and 0.0% (2×) and 100.0% and 70.3%, the “Paw withdrawal thresholds (g; raw data) 3 hrs” value [2, 6] was 130 g and 120 g and 100 g (2×) and 180 g and 150 g and the “Raw MPE (%) 3 hrs” value [2, 6] was 41.8% and 27.5% and −1.0% (2×) and 113.1% and 70.3%. For the same molecule, the “% MPE (0-100) 5 hrs” value [2, 5] was 34.7%, the “Paw withdrawal thresholds (g; raw data) 5 hrs” value [2, 5] was 122.5 g and the “Raw MPE (%) 5 hrs” value [2, 5] was 33.6%. For the same molecule, the “% MPE (0-100) 5 hrs” value [2, 6] was 30.3% (2×) and 0.0% and 43.6% and 100.0% and 3.8%, the “Paw withdrawal thresholds (g; raw data) 5 hrs” value [2, 6] was 120 g (2×) and 70 g and 130 g and 195 g and 100 g and the “Raw MPE (%) 5 hrs” value [2, 6] was 30.3% (2×) and −36.0% and 43.6% and 129.9% and 3.8%. The “% MPE (0-100) 24 hrs” value [2, 5] was 28.6%, the “Paw withdrawal thresholds (g; raw data) 24 hrs” value [2, 5] was 117.5 g and the “Raw MPE (%) 24 hrs” value [2, 5] was 33.9%. The “% MPE (0-100) 24 hrs” value [2, 6] was 44.5% and 16.2% and 2.0% and 9.1% and 100.0% and 0.0%, the “Paw withdrawal thresholds (g; raw data) 24 hrs” value [2, 6] was 125 g and 105 g and 95 g and 100 g and 195 g and 85 g and the “Raw MPE (%) 24 hrs” value [2, 6] was 44.5% and 16.2% and 2.0% and 9.1% and 143.7% and −12.1%. For the same molecule, the “AUC (0-5)” value [2, 5] was 159.1, the “AUC (0-5)” value [2, 6] was 113.9 and 85.3 and 0.0 and 53.7 and 450.0 and 251.7 and the “% MPE (0-100) 1 hr” value [2, 7] was 80.7%. For the same molecule, the “Paw withdrawal thresholds (g; raw data) 1 hr” value [2, 7] was 199.2 g, the “Raw MPE (%) 1 hr” value [2, 7] was 117.7% and the “% MPE (0-100) 1 hr” value [2, 8] was 100.0% (4×) and 48.0% and 36.2%. For the same molecule, the “Paw withdrawal thresholds (g; raw data) 1 hr” value [2, 8] was 250 g (2×) and 190 g and 140 g and 130 g and 235 g, the “Raw MPE (%) 1 hr” value [2, 8] was 177.6% (2×) and 106.9% and 48.0% and 36.2% and 159.9% and the “% MPE (0-100) 3 hrs” value [2, 7] was 54.2%. For the same molecule, the “Paw withdrawal thresholds (g; raw data) 3 hrs” value [2, 7] was 163.3 g, the “Raw MPE (%) 3 hrs” value [2, 7] was 89.3% and the “% MPE (0-100) 3 hrs” value [2, 8] was 100.0% (2×) and 70.3% and 0.0% and 41.8% and 13.2%. For the same molecule, the “Paw withdrawal thresholds (g; raw data) 3 hrs” value [2, 8] was 250 g (2×) and 150 g and 90 g and 130 g and 110 g, the “Raw MPE (%) 3 hrs” value [2, 8] was 212.9% (2×) and 70.3% and −15.3% and 41.8% and 13.2% and the “% MPE (0-100) 5 hrs” value [2, 7] was 31.8%. For the same molecule, the “Paw withdrawal thresholds (g; raw data) 5 hrs” value [2, 7] was 119.2 g, the “Raw MPE (%) 5 hrs” value [2, 7] was 29.2% and the “% MPE (0-100) 5 hrs” value [2, 8] was 100.0% and 43.6% (2×) and 3.8% and 0.0% (2×). The “Paw withdrawal thresholds (g; raw data) 5 hrs” value [2, 8] was 180 g and 130 g (2×) and 100 g and 80 g and 95 g, the “Raw MPE (%) 5 hrs” value [2, 8] was 110.0% and 43.6% (2×) and 3.8% and −22.7% and −2.8% and the “% MPE (0-100) 24 hrs” value [2, 7] was 1.5%. For the same molecule, the “Paw withdrawal thresholds (g; raw data) 24 hrs” value [2, 7] was 84.2 g, the “Raw MPE (%) 24 hrs” value [2, 7] was −13.3% and the “% MPE (0-100) 24 hrs” value [2, 8] was 0.0% (5×) and 9.1%. The “Paw withdrawal thresholds (g; raw data) 24 hrs” value [2, 8] was 90 g (3×) and 55 g and 100 g and 80 g, the “Raw MPE (%) 24 hrs” value [2, 8] was −5.1% (3×) and −54.6% and 9.1% and −19.2% and the “AUC (0-5)” value [2, 7] was 261.3. The “AUC (0-5)” value [2, 8] was 450.0 and 334.2 and 153.8 and 155.5 and 80.8 and 393.6, the “effectiveness in model of hyperalgesia vs 100 μg gabapentin” value ([2]; 49 μg intrathecal, rat) was “considerably more effective” and the “reversing hyperalgesia, compared to gabapentin” value ([2]; 10 or 49 μg intrathecal vs 100 μg gabapentin, rat) was “essentially as effective or more effective as gabapentin”. It also gave an EC50 (mGluR5; aequorin assay, agonist at EC80, 10000 = no activity observed at 10,000 nM, read-out: mGluR5 EC50) of 62 nM and an EC50 (mGluR1 [3]) of 38 nM.

From patent US8614205B2, “Glutamate receptor modulators and therapeutic agents” (priority 2009, dated 2013)
